Consider 19 compounds from patent US8653127B2, “Bicyclic pyrazolo-heterocycles” (Cara Therapeutics, Inc., priority 2009, dated 2014).

Where two headings read alike, the source gives them in different places.

The test system of one assay is rat L5/L6 SNL model. As to the kind of experiment: Spinal nerve ligation (SNL) model of neuropathic pain, mechanical allodynia. It counts as in vivo. As to conditions: two-way repeated measurement ANOVA, FIG. 1. The protocol: The SNL model (Kim and Chung, 1992, Pain 50(3):355-63) was used to induce chronic neuropathic pain in rats. Rats were anesthetized with isoflurane, the left L5 transverse process was removed, and the L5 and L6 spinal nerves were tightly ligated with 6-0 silk suture. The wound was then closed with internal sutures and external staples. Following at least seven days post SNL, baseline, post-injury and post-treatment values for non-noxious mechanical sensitivity were evaluated using eight Semmes-Weinstein filaments (Stoelting, Wood Dale, Ill., USA) with varying stiffness (0.4, 0.7, 1.2, 2.0, 3.6, 5.5, 8.5, and 15 g) according to the up-down method (Chaplan et al., 1994, J. Neurosci. Meth., 53(1):55-63). Animals were placed on a perforated metallic platform and allowed to acclimate to their surroundings for a minimum of 30 mins before testing.
Rat L5/L6 SNL model (n=6/group; mean±sem). Sensitivity to non-noxious mechanical stimuli was tested before and at various time points following oral administration of compound (36). The mean and standard error of the mean (SEM) were determined for the injured paw in each treatment group. Since this stimulus is normally not considered painful, significant injury-induced increases in responsiveness in this test are interpreted as a measure of mechanical allodynia.

In assay [1] the target is human CB2 receptor (hCB2) (Homo sapiens, UniProt P34972). The assay is described as follows: cAMP assay, agonist/inverse agonist activity at human CB2 receptor. It counts as cell-based. As for the experimental part:
(§1) TR-FRET was measured using a 330-380 nm excitation filter, 615 nm and 665 nm emission filters, dichroic mirror 380 nm and Z=10 mm. cAMP concentrations in each well were back-calculated from a cAMP standard curve run concurrently during each assay. Each plate contained 16 wells of forskolin stimulated cells and 16 wells of forskolin plus 1 μM CP55,940-treated cells. Concentrations of cAMP were expressed as a percent of the difference of these two groups of wells.

For assay [2], the target named is human CB1 receptor (hCB1) (Homo sapiens, UniProt P21554). As to the kind of experiment: cAMP assay, agonist/inverse agonist activity at human CB1 receptor. It counts as cell-based. The conditions noted are these: hCB1R, read-out: EC50 at hCB1R (Potency at Human CB1 determined by cAMP Assay). As for the experimental part: The ability of each of the compounds to act as agonists or inverse agonists at human CB2 and CB 1 receptors (hCB2, hCB 1, respectively) and at the rat CB2 receptor (rCB2) was determined by measuring changes in intracellular cyclic AMP (cAMP) levels as described in U.S. Pat. No. 7,517,874.
human CB1 receptor (hCB1), sequence (P21554 whole entry): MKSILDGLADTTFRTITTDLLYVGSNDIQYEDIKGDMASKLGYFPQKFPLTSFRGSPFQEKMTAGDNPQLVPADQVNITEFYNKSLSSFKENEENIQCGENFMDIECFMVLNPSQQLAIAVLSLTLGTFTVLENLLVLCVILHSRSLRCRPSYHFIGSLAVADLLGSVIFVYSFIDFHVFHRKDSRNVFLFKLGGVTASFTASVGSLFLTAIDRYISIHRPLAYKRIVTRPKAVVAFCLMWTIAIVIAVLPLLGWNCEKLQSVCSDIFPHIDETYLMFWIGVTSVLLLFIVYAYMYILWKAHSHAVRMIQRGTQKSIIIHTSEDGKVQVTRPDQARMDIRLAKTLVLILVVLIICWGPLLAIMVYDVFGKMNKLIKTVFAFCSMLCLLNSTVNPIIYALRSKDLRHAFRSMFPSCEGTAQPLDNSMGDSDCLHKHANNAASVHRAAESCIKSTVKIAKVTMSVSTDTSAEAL
as §1, with “wells. Concentration-response data including EC50 (the concentration of compound producing 50% of the maximal response) and intrinsic activity (the percent maximal activation compared to full activation by CP55,940) were determined using a four-parameter non-linear regression algorithm (CambridgeSoft Bioassay).” for “wells.”
In general terms: cAMP levels reflect the balance of adenylyl cyclase and phosphodiesterase activity.

Setting [3] is: hCB2R, cAMP assay, read-out: EC50 at hCB2R (Potency at Human CB2 determined by cAMP Assay).

human CB2 receptor (hCB2), sequence (P34972 whole entry): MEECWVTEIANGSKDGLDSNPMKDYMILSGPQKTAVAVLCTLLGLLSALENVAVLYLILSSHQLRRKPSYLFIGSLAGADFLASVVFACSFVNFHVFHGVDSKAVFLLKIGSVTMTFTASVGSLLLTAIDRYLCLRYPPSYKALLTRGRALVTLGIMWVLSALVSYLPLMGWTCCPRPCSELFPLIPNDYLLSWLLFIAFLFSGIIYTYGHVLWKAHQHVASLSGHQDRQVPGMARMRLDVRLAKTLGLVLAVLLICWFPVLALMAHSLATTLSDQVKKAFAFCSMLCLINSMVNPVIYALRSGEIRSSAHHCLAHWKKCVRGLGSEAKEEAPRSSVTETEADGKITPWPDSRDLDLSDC

Regarding `CC(C)(C)[C@H](NC(=O)n1nc(-c2ccc(F)c(F)c2)c2c1CCOC2)C(=O)NCCO` [Compound 36, (S)-N-(1-(2-hydroxyethylamino)-3,3-dimethyl-1-oxobutan-2-yl)-3-(3,4-difluorophenyl)-6,7-dihydropyrano[4,3-c]pyrazole-1(4H)-carboxamide], the “sensitivity to non-noxious mechanical stimuli, significance vs. vehicle-controls” value in the assay with rat L5/L6 SNL model (3 mg/kg oral) is “significant to p<0.05 vs. vehicle-controls”; in the assay on rat L5/L6 SNL model (10 mg/kg oral) it was “significant to p<0.001 vs. vehicle-controls”; with rat L5/L6 SNL model (30 mg/kg oral) it was “significant to p<0.001 vs. vehicle-controls”.

For orientation: EC50 means the concentration giving half of the maximal effect. On to `CNC(=O)[C@@H](NC(=O)n1nc(-c2cc(C(F)(F)F)ccc2F)c2c1CCN(C)C2)C(C)(C)C` [Compound 59, (S)-N-(3,3-dimethyl-1-(methylamino)-1-oxobutan-2-yl)-3-(2-fluoro-5-(trifluoromethyl)phenyl)-5-methyl-4,5,6,7-tetrahydro-1H-pyrazolo[4,3-c]pyridine-1-carboxamide], for which the EC50 in assay [1] and in assay [2] was less than 1 µM each time.

Regarding `CC(C)(C)[C@H](NC(=O)n1nc(-c2ccc(F)c(F)c2)c2c1CCOC2)C(=O)NCCC#N` [Compound 104, (S)-N-(1-(2-cyanoethylamino)-3,3-dimethyl-1-oxobutan-2-yl)-3-(3,4-difluorophenyl)-6,7-dihydropyrano[4,3-c]pyrazole-1(4H)-carboxamide], the EC50 in assay [1] and in assay [2] was less than 1 µM in each case.

Turning to `Cc1cc(NC(=O)[C@@H](NC(=O)n2nc(-c3ccc(F)c(F)c3)c3c2CCOC3)C(C)(C)C)n[nH]1` [Compound 105, (S)-3-(3,4-difluorophenyl)-N-(3,3-dimethyl-1-(5-methyl-1H-pyrazol-3-ylamino)-1-oxobutan-2-yl)-6,7-dihydropyrano[4,3-c]pyrazole-1(4H)-carboxamide], the 50% effective concentration (EC50) in assay [1] and in assay [2] was less than 1 µM in each case.

As for `Cc1cnc(CNC(=O)[C@@H](NC(=O)n2nc(-c3ccc(F)c(F)c3)c3c2CCOC3)C(C)(C)C)cn1` [Compound 106, (S)-3-(3,4-difluorophenyl)-N-(3,3-dimethyl-1-((5-methylpyrazin-2-yl)methylamino)-1-oxobutan-2-yl)-6,7-dihydropyrano-[4,3-c]pyrazole-1(4H)-carboxamide], the EC50 in assay [1] (setting [3]) and in assay [2] was less than 1 µM in each case.

As for `CC(C)(C)[C@H](NC(=O)n1nc(-c2ccc(F)c(F)c2)c2c1CCOC2)C(=O)N1CCN(c2ncccn2)CC1` [Compound 107, (S)-3-(3,4-difluorophenyl)-N-(3,3-dimethyl-1-oxo-1-(4-(pyrimidin-2-yl)piperazin-1-yl)butan-2-yl)-6,7-dihydropyrano[4,3-c]pyrazole-1(4H)-carboxamide], the EC50 in assay [1] (setting [3]) and in assay [2] was less than 1 µM throughout.

As for `CC(C)(C)[C@H](NC(=O)n1nc(-c2ccc(F)c(F)c2)c2c1CCOC2)C(=O)N1CCN(c2nccs2)CC1` [Compound 108, (S)-3-(3,4-difluorophenyl)-N-(3,3-dimethyl-1-oxo-1-(4-(thiazol-2-yl)piperazin-1-yl)butan-2-yl)-6,7-dihydropyrano[4,3-c]pyrazole-1(4H)-carboxamide], the EC50 in assay [1] and in assay [2] was less than 1 µM throughout.

For the compound `CC(C)(C)[C@H](NC(=O)n1nc(-c2ccc(F)c(F)c2)c2c1CCOC2)C(=O)N1CCC[C@H]1CO` [Compound 109, 3-(3,4-difluorophenyl)-N-((S)-1-((S)-2-(hydroxymethyl)pyrrolidin-1-yl)-3,3-dimethyl-1-oxobutan-2-yl)-6,7-dihydropyrano[4,3-c]pyrazole-1(4H)-carboxamide], the EC50 in assay [1] and in assay [2] was less than 1 µM each time.

Consider `CC(C)(C)[C@H](NC(=O)n1nc(-c2ccc(F)c(F)c2)c2c1CCOC2)C(=O)N1CCS(=O)(=O)CC1` [Compound 110, (S)-3-(3,4-difluorophenyl)-N-(3,3-dimethyl-1-oxo-1-thiomorpholinodioxide-butan-2-yl)-6,7-dihydropyrano[4,3-c]pyrazole-1(4H)-carboxamide], for which the EC50 in assay [1] (setting [3]) is greater than 1 µM; in assay [2], less than 1 µM.

For `CC(C)(C)[C@H](NC(=O)n1nc(-c2ccc(F)c(F)c2)c2c1CCOC2)C(=O)N1CCNC(=O)C1` [Compound 111, (S)-3-(3,4-difluorophenyl)-N-(3,3-dimethyl-1-oxo-1-(3-oxopiperazin-1-yl)butan-2-yl)-6,7-dihydropyrano[4,3-c]pyrazole-1(4H)-carboxamide], the EC50 in assay [1] and in assay [2] was less than 1 µM in each case.

On to `CN(C)S(=O)(=O)N1CCN(C(=O)[C@@H](NC(=O)n2nc(-c3ccc(F)c(F)c3)c3c2CCOC3)C(C)(C)C)CC1` [Compound 112, (S)-3-(3,4-difluorophenyl)-N-(1-(4-(N,N-dimethylsulfamoyl)piperazin-1-yl)-3,3-dimethyl-1-oxobutan-2-yl)-6,7-dihydropyrano-[4,3-c]pyrazole-1(4H)-carboxamide], for which the EC50 in assay [1] (setting [3]) is greater than 1 µM; in assay [2], less than 1 µM.

For `Cc1nnc(CNC(=O)[C@@H](NC(=O)n2nc(-c3ccc(F)c(F)c3)c3c2CCOC3)C(C)(C)C)o1` [Compound 113, (S)-3-(3,4-difluorophenyl)-N-(3,3-dimethyl-1-((5-methyl-1,3,4-oxadiazol-2-yl)methylamino)-1-oxobutan-2-yl)-6,7-dihydropyrano[4,3-c]pyrazole-1(4H)-carboxamide], the EC50 in assay [1] and in assay [2] was less than 1 µM each time.

Turning to `CC(C)(C)[C@H](NC(=O)c1nn(-c2ccc(Cl)cc2F)c2c1COCC2)C(=O)NCCO` [Compound 117, (S)-1-(4-chloro-2-fluorophenyl)-N-(1-(2-hydroxyethylamino)-3,3-dimethyl-1-oxobutan-2-yl)-1,4,6,7-tetrahydropyrano[4,3-c]pyrazole-3-carboxamide], the EC50 in assay [1] and in assay [2] was less than 1 µM in each case.

`CC(C)(C)[C@H](NC(=O)c1nn(-c2ccc(Cl)cc2F)c2c1CCOC2)C(=O)NCCO` [Compound 118, (S)-1-(4-chloro-2-fluorophenyl)-N-(1-(2-hydroxyethylamino)-3,3-dimethyl-1-oxobutan-2-yl)-1,4,5,7-tetrahydropyrano[3,4-c]pyrazole-3-carboxamide]: the EC50 in assay [1] and in assay [2] was less than 1 µM throughout.

As to `CC(C)(C)[C@H](NC(=O)c1nn(-c2cc(Cl)ccc2F)c2c1COCC2)C(=O)NCCO` [Compound 119, (S)-1-(5-chloro-2-fluorophenyl)-N-(1-(2-hydroxyethylamino)-3,3-dimethyl-1-oxobutan-2-yl)-1,4,6,7-tetrahydropyrano[4,3-c]pyrazole-3-carboxamide], the EC50 in assay [1] and in assay [2] was less than 1 µM throughout.

For `CNC(=O)[C@@H](NC(=O)c1nn(-c2ccc(F)c(F)c2)c2c1CN(C)CCC2)C(C)(C)C` [Compound 120, (S)-1-(3,4-difluorophenyl)-N-(3,3-dimethyl-1-(methylamino)-1-oxobutan-2-yl)-5-methyl-1,4,5,6,7,8-hexahydropyrazolo[4,3-c]azepine-3-carboxamide], the EC50 in assay [1] and in assay [2] was less than 1 µM throughout.

For `CC(C)(C)[C@H](NC(=O)c1nn(-c2cc(Cl)ccc2F)c2c1COCC2)C(=O)N1CCNC(=O)C1` [Compound 121, (S)-1-(5-chloro-2-fluorophenyl)-N-(3,3-dimethyl-1-oxo-1-(3-oxopiperazin-1-yl)butan-2-yl)-1,4,6,7-tetrahydropyrano[4,3-c]pyrazole-3-carboxamide], the hCBR2 activity entry in assay [1] (cAMP assay) was “no detectable hCBR2 activity”. In addition, in assay [2], the 50% effective concentration (EC50) was less than 1 µM.

As for `CC(C)(C)C(NC(=O)c1nn(-c2cc(Cl)ccc2F)c2c1COCC2)C(=O)N1CCC[C@H]1CO` (stereo partly drawn) [Compound 122], the EC50 in assay [1] and in assay [2] was less than 1 µM in each case.

For the compound `Cc1nnc(CNC(=O)[C@@H](NC(=O)c2nn(-c3cc(Cl)ccc3F)c3c2COCC3)C(C)(C)C)o1` [Compound 123], the hCBR2 activity entry in assay [1] (cAMP assay) was “no detectable hCBR2 activity”. The EC50 in assay [2] was less than 1 µM.
